According to ChEMBL document CHEMBL1135545, “Conformational memories and the endocannabinoid binding site at the cannabinoid CB1 receptor” (J Med Chem, 2002):

target: Cannabinoid receptor 1 (Homo sapiens, UniProt P21554); assay: Compound was evaluated for its binding affinity towards Cannabinoid receptor 1 [Inactive form(R) of CB1 receptor]
Sequence (P21554 whole entry): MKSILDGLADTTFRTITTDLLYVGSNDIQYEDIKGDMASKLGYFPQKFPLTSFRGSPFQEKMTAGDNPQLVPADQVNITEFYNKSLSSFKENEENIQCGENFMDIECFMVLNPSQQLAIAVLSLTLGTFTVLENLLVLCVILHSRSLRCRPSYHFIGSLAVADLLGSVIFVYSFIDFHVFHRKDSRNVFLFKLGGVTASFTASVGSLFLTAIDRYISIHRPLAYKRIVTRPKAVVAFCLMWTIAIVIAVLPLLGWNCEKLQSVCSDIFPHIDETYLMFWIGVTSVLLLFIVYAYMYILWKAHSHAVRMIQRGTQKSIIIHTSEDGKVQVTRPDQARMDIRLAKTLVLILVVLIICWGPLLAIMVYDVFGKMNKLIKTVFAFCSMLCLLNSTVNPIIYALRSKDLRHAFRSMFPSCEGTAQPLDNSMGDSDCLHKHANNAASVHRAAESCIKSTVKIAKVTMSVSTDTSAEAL

| SMILES | Ki [nM] |
| --- | --- |
| CCCCC/C=C\C/C=C\C/C=C\C/C=C\CC[C@H](C)C(=O)N[C@@H](C)CO | 389 |
| CCCCC/C=C\C/C=C\C/C=C\C/C=C\CC[C@@H](C)C(=O)N[C@H](C)CO | 7.42 |
| CCCCC/C=C\C/C=C\CCCCCCCCCC(=O)NCCO | > 1500 |
| CCCCC/C=C\C/C=C\C/C=C\C/C=C\CC[C@@H](C)C(=O)N[C@@H](C)CO | 233 |
| CCCCC/C=C\C/C=C\C/C=C\C/C=C\CCCCCC(=O)NCCO | 34.4 |
| CCCCC/C=C\C/C=C\C/C=C\C/C=C\CC[C@H](C)C(=O)N[C@H](C)CO | 185 |
